According to patent US10076519B2 (CYTOKINETICS, INC., priority 2010, dated 2018):

Test system: rabbit skeletal myofibrils (fast skeletal myofibrils)
Assay: Activation of fast skeletal myofibrils (PUMA assay, PK/LDH-coupled ATPase at pCa25)
Type: biochemical
Method: Preparation of Fast Skeletal Myofibrils.
Rabbit skeletal myofibrils were prepared based upon the method of Herrmann et al. (Biochem. 32(28):7255-7263(1993). Myofibrils were prepared from rabbit psoas muscle purchased from Pel-Freez Biologicals (Arkansas) within 2 days of ordering, stored on ice. Minced muscle was homogenized in 10 volumes of ice-cold “standard” buffer (50 mM Tris, pH 7.4, 0.1M potassium acetate, 5 mM KCl, 2 mM DTT, 0.2 mM PMSF, 10 μM leupeptin, 5 μM pepstatin, and 0.5 mM sodium azide) containing 5 mM EDTA and 0.5% Triton X-100 using an Omni-Macro homogenizer. Myofibrils were recovered by low speed centrifugation (3000 rpm for 10 minutes) and washed 2 times in the Triton X-100 containing buffer to ensure removal of cellular membrane. Following the Triton washes, myofibrils were washed 3 times in “standard” buffer containing 2 mM magnesium acetate. A final wash in assay buffer (12 mM PIPES, pH 6.8, 60 mM KCl, 1 mM DTT) was performed and brought to 10% sucrose for flash freezing in liquid nitrogen and storage at −80° C.
Activation of Fast Skeletal Myofibrils.
Fast fiber activators were identified by measuring the enzymatic activity of muscle myofibril preparations using the proprietary PUMA™ (see, e.g., U.S. Pat. Nos. 6,410,254, 6,743,599, 7,202,051, and 7,378,254) assay system. Myofibril preparations consisted of rabbit skeletal muscle (approximately 90% fast fibers) that had been mechanically homogenized and washed with a detergent (triton X-100) to remove cellular membranes. This preparation retained all of the sarcomeric components in a native conformation and the enzymatic activity was still regulated by calcium. Compounds were tested using a myofibril suspension and a level of calcium sufficient to increase enzymatic activity of the myofibrils to 25% of their maximal rate (termed pCa25). Enzymatic activity was tracked via a pyruvate kinase and lactate dehydrogenase-coupled enzyme system. This assay regenerates myosin-produced ADP into ATP by oxidizing NADH, producing an absorbance change at 340 nm. The buffering system was 12 mM Pipes, 2 mM MgCl2, 1 mM DTT at pH 6.8 (PM12 buffer).
Using procedures similar to those described herein, utilizing reagents and intermediates commercially available (e.g., Sigma-Aldrich, St. Louis, Mo.) or readily synthesized by one of skill in the art, the compounds in Table 2 were synthesized, characterized and tested. AC1.4 values were determined according to the procedure described in Example 39, and the reported median AC1.4 values are as follows: A=<1 uM; B=1-10 uM; C=10-20 uM; D=>20 uM.

[1] = median AC1.4 class, procedure of Example 39
[2] = AC1.4 determined according to the procedure of Example 39, reported as class symbols

Mean AC1.4 [1] | Mean AC1.4 [2] | Structure (SMILES)
D (D=>20 uM) | – | CC(=O)N1CC(c2ccc(NCC3(c4ncccc4F)CCC3)nn2)C1
– | D (D=>20 uM) | CC(C)(CNc1ccc(-c2cccc(C#N)c2)nn1)OCc1ccccc1
– | D (D=>20 uM) | CC(C)(CNc1ccc(-c2cccc(C(N)=O)c2)nn1)OCc1ccccc1
D (D=>20 uM) | – | NC(=O)c1cccc(-c2ccc(NC3(c4ncccc4OC(F)F)CCC3)nn2)c1
C (C=10-20 uM) | – | NC(=O)c1ccc(F)c(-c2ccc(NC3(c4ncccc4OC(F)F)CCC3)nn2)c1
A (A=<1 uM) | – | NC(=O)c1ccc(F)c(-c2ccc(NC3(c4ncccc4Br)CCC3)nn2)c1
D (D=>20 uM) | – | NC(=O)c1ccc(C2(Nc3ccc(-c4cccc(C(N)=O)c4)nn3)CCC2)cc1
D (D=>20 uM) | – | N#Cc1ccnc(C2(Nc3ccc(-c4cc(C(N)=O)ccc4F)nn3)CCC2)c1
– | C (C=10-20 uM) | CC(Nc1ccc(-c2cccc(C(N)=O)c2)nn1)c1ccc(F)cc1 (centres unmarked)
D (D=>20 uM) | – | NC(=O)c1ccc(F)c(-c2ccc(NC3(c4ccc(OC(F)F)cn4)CCC3)nn2)c1
D (D=>20 uM) | – | N#Cc1ccc(C2(Nc3ccc(-c4cc(C(N)=O)ccc4F)nn3)CCC2)nc1
A (A=<1 uM) | – | NC(=O)c1cccc(-c2ccc(NC3(c4cccc(OC(F)F)n4)CCC3)nn2)c1
A (A=<1 uM) | – | NC(=O)c1ccc(F)c(-c2ccc(NC3(c4cccc(OC(F)F)n4)CCC3)nn2)c1
B (B=1-10 uM) | – | N#Cc1cccc(C2(Nc3ccc(-c4cc(C(N)=O)ccc4F)nn3)CCC2)n1
B (B=1-10 uM) | – | COc1cccc(C2(Nc3ccc(-c4cccc(C(N)=O)c4)nn3)CCC2)n1
– | D (D=>20 uM) | N=C(N)c1cccc(-c2ccc(NCC3(c4ncccc4F)CCC3)nn2)c1
B (B=1-10 uM) | – | NC(=O)c1cc(-c2ccc(NCC3(c4ncccc4F)CCC3)nn2)n[nH]1
A (A=<1 uM) | – | NC(=O)c1cc(-c2ccc(NCC3(c4ncccc4F)CCC3)nn2)no1
D (D=>20 uM) | – | NC(=O)N1CC(c2ccc(NCC3(c4ncccc4F)CCC3)nn2)C1
B (B=1-10 uM) | – | Cn1nc(-c2ccc(NCC3(c4ncccc4F)CCC3)nn2)cc1C(N)=O
– | D (D=>20 uM) | CC(Nc1ccc(-c2cccc(C(N)=O)c2)nn1)c1ccccc1 (centres unmarked)
– | B (B=1-10 uM) | O=C1Cc2c(cccc2-c2ccc(NCC3(c4ncccc4F)CCC3)nn2)N1
C (C=10-20 uM) | – | NC(=O)c1nc(-c2ccc(NCC3(c4ncccc4F)CCC3)nn2)c[nH]1
D (D=>20 uM) | – | Cn1cc(-c2ccc(NCC3(c4ncccc4F)CCC3)nn2)nc1C(N)=O
B (B=1-10 uM) | – | COc1cc(-c2ccc(NCC3(c4ncccc4F)CCC3)nn2)ccc1C(N)=O
D (D=>20 uM) | – | COc1cc(-c2ccc(NCC3(c4ncccc4F)CCC3)nn2)ccc1C(=O)O

Mean AC1.4 [1] | Mean AC1.4 [2] | Structure (SMILES)
B (B=1-10 uM) | – | NC(=O)c1ccc(-c2ccc(NCC3(c4ncccc4F)CCC3)nn2)cc1O
B (B=1-10 uM) | – | NC(=O)c1ccc(Cl)c(-c2ccc(NC3(c4ncccc4F)CCC3)nn2)c1
D (D=>20 uM) | – | CC(C)(Nc1ccc(-c2cc(C(N)=O)ccc2F)nn1)c1cccc(=O)[nH]1
B (B=1-10 uM) | – | N#Cc1ccc(F)c(-c2ccc(NC3(c4ncccc4F)CCC3)nn2)c1
A (A=<1 uM) | – | NC(=O)c1ccc(F)c(-c2ccc(NC3(c4ncccc4F)CCCC3)nn2)c1
D (D=>20 uM) | – | NC(=O)c1ccc(F)c(-c2ccc(NC3(c4ncccc4O)CCC3)nn2)c1
C (C=10-20 uM) | – | COc1cccnc1C1(Nc2ccc(-c3cc(C(N)=O)ccc3F)nn2)CCC1
B (B=1-10 uM) | – | O=C(O)c1ccc(F)c(-c2ccc(NC3(c4ccc(F)cc4)CCC3)nn2)c1
D (D=>20 uM) | – | NC(=O)c1ccc(F)c(-c2ccc(NC3(c4ccc(O)cn4)CCC3)nn2)c1
D (D=>20 uM) | – | COc1ccc(C2(Nc3ccc(-c4cc(C(N)=O)ccc4F)nn3)CCC2)nc1
A (A=<1 uM) | – | COc1cccc(C2(Nc3ccc(-c4cc(C(N)=O)ccc4F)nn3)CCC2)n1
D (D=>20 uM) | – | CC1(Nc2ccc(-c3cc(C(N)=O)ccc3F)nn2)CCC1
– | B (B=1-10 uM) | CC(C)(CNc1ccc(-c2ccc(=O)[nH]c2)nn1)c1ccc(F)cc1
– | D (D=>20 uM) | CC(C)(CNc1ccc(-c2cnc(=O)[nH]c2)nn1)c1ccc(F)cc1
– | A (A=<1 uM) | CC(C)(CNc1ccc(-c2ccc3[nH]c(=O)[nH]c3c2)nn1)c1ccc(F)cc1
B (B=1-10 uM) | – | NC(=O)c1ncc(-c2ccc(NCC3(c4ncccc4F)CCC3)nn2)o1
B (B=1-10 uM) | – | NC(=O)c1cc(-c2ccc(NCC3(c4ncccc4F)CCC3)nn2)on1
– | B (B=1-10 uM) | NC(=O)c1cc(C(N)=O)cc(-c2ccc(NCC3(c4ncccc4F)CCC3)nn2)c1
D (D=>20 uM) | – | O=C(O)c1cc(-c2ccc(NCC3(c4ncccc4F)CCC3)nn2)on1
– | D (D=>20 uM) | O=C(O)c1cc(C(=O)O)cc(-c2ccc(NCC3(c4ncccc4F)CCC3)nn2)c1
B (B=1-10 uM) | – | COc1ccc(-c2ccc(NCC3(c4ncccc4F)CCC3)nn2)cc1C(N)=O
A (A=<1 uM) | – | NC(=O)c1cc(-c2ccc(NCC3(c4ncccc4F)CCC3)nn2)ccc1O
D (D=>20 uM) | – | COc1ccc(-c2ccc(NCC3(c4ncccc4F)CCC3)nn2)cc1C(=O)O
– | B (B=1-10 uM) | CC(=O)Nc1cccc(-c2ccc(NCC3(c4ncccc4F)CCC3)nn2)c1
– | D (D=>20 uM) | CC(=O)Nc1nc(-c2ccc(NCC3(c4ncccc4F)CCC3)nn2)c[nH]1
– | C (C=10-20 uM) | COC(=O)NCc1ccc(-c2ccc(NCC(C)(C)c3ccc(F)cc3)nn2)cn1

Mean AC1.4 [1] | Mean AC1.4 [2] | Structure (SMILES)
D (D=>20 uM) | – | NC(=O)[C@H]1C[C@@H]1c1ccc(NCC2(c3ncccc3F)CCC2)nn1
– | B (B=1-10 uM) | OCc1ccccc1-c1ccc(NCC2(c3ncccc3F)CCC2)nn1
D (D=>20 uM) | – | NC(=O)[C@@H]1C[C@@H]1c1ccc(NCC2(c3ncccc3F)CCC2)nn1
C (C=10-20 uM) | – | CS(=O)(=O)Nc1cccc(-c2ccc(NC3(c4ncccc4OC(F)F)CCC3)nn2)c1
B (B=1-10 uM) | – | CS(=O)(=O)Nc1cccc(-c2ccc(NC3(c4ncccc4F)CCC3)nn2)c1
A (A=<1 uM) | – | CS(=O)(=O)Nc1cccc(-c2ccc(NC3(c4cccc(OC(F)F)n4)CCC3)nn2)c1
B (B=1-10 uM) | – | COc1cccc(C2(Nc3ccc(-c4cccc(NS(C)(=O)=O)c4)nn3)CCC2)n1
B (B=1-10 uM) | – | CNC(=O)c1cc(-c2ccc(NC3(c4ccc(F)cc4)CCC3)nn2)ccn1
B (B=1-10 uM) | – | CC(C)(O)CNC(=O)c1ccc(F)c(-c2ccc(NC3(c4ccc(F)cc4)CCC3)nn2)c1
– | A (A=<1 uM) | Fc1cccnc1C1(CNc2ccc(-c3ccccc3OC(F)(F)F)nn2)CCC1
C (C=10-20 uM) | – | NC(=O)NC1CC(c2ccc(NCC3(c4ncccc4F)CCC3)nn2)C1 (centres unmarked)
B (B=1-10 uM) | – | NC(=O)N[C@H]1C[C@@H](c2ccc(NCC3(c4ncccc4F)CCC3)nn2)C1
B (B=1-10 uM) | – | NC(=O)Nc1ccc(-c2ccc(NC3(c4ncccc4F)CCC3)nn2)c(F)c1
B (B=1-10 uM) | – | NC(=O)Nc1ccc(-c2ccc(NC3(c4ncccc4F)CCC3)nn2)cc1
B (B=1-10 uM) | – | NC(=O)NC1CC=C(c2ccc(NCC3(c4ncccc4F)CCC3)nn2)CC1 (centres unmarked)
A (A=<1 uM) | – | NC(=O)Nc1n[nH]c2ccc(-c3ccc(NCC4(c5ncccc5F)CCC4)nn3)cc12
B (B=1-10 uM) | – | NS(=O)(=O)Nc1ccc(-c2ccc(NC3(c4ncccc4F)CCC3)nn2)c(F)c1
B (B=1-10 uM) | – | NS(=O)(=O)Nc1ccc(F)c(-c2ccc(NC3(c4ncccc4F)CCC3)nn2)c1
– | B (B=1-10 uM) | N=C(N)Nc1n[nH]c2ccc(-c3ccc(NCC4(c5ncccc5F)CCC4)nn3)cc12
D (D=>20 uM) | – | CCOC(=O)C(C(=O)OCC)c1ccc(NCC2(c3ncccc3F)CCC2)nn1
D (D=>20 uM) | – | CCOC(=O)c1cc(-c2ccc(NCC3(c4ncccc4F)CCC3)nn2)on1
D (D=>20 uM) | – | CCOC(=O)/C=C/c1ccc(NC2(c3ncccc3F)CCC2)nn1
D (D=>20 uM) | – | CCOC(=O)/C=C/c1ccc(NCC2(c3ncccc3F)CCC2)nn1
D (D=>20 uM) | – | COC(=O)N1CC(c2ccc(NCC3(c4ncccc4F)CCC3)nn2)C1
D (D=>20 uM) | – | O=C(OCc1ccccc1)N1CC(c2ccc(NCC3(c4ncccc4F)CCC3)nn2)C1
